In patent US20260191968A1, “PROTAC DEGRADERS OF MLLT1 AND/OR MLLT3” (DARK BLUE THERAPEUTICS LTD, priority 2024, published 2026):

Assays:
MLLT1 = target: T1, MLLT1 (Homo sapiens, UniProt Q03111); test: MLLT1 degradation assay in MV4-11 cells (JESS chemiluminescent detection), three concentrations, 24 h; type: cell-based; conditions: with respect to DMSO control
T1 construct: host or cells: MV4-11
T1 sequence (Q03111 1-559): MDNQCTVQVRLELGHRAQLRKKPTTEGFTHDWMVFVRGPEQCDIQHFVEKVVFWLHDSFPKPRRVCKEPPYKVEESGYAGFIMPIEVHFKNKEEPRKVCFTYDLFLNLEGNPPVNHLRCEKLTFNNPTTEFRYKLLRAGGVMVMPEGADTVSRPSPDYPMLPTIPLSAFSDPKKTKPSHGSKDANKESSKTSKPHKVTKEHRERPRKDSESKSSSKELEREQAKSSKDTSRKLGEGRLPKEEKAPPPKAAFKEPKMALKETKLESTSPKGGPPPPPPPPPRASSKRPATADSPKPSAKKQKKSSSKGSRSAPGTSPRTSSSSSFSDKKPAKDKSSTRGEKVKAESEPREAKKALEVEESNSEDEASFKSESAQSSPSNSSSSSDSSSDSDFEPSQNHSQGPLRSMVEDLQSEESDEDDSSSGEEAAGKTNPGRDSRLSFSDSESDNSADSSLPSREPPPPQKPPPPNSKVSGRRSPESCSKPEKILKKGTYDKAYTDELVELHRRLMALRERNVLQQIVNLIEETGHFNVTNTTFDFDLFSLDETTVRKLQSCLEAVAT
Method in brief: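 Read-out is % MLLT1 degradation versus DMSO, from band peak areas on a JESS chemiluminescent system. Cells (MV4-11) were exposed for 24 h at 37° C to three compound levels, 10, 100 and 1000 nM, in 0.1% DMSO.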

MV4-11 cells = test: MV4-11 cellular proliferative assay, Assay Format A (CellTiter-Glo, 120 hours); type: cell-based; conditions: Homo sapiens
Procedure: An MV4-11 proliferation assay was used to test the ability of compounds to reduce cell viability. MV4-11 cells (ATCC #CRL9591) were grown in IMDM medium (11510596, Gibco) supplemented with 10% fetal bovine serum (F7524, Gibco) and 1% Penicillin/Streptomycin (15140-122, Gibco) at 37° C. with 5% CO2. Cells were seeded in 384-well Elplasia plates (4447, Corning) at a density of 50 cells/well and treated with vehicle (DMSO) or compounds (10 serial semi-log dilutions, 30 μM as top concentration).
After 120 hours of treatment, cells were incubated for 10 min at RT with the CellTiter-Glo (CTG) reagent (G7571, Promega). Measurement of the luminescence signal was performed on a microplate reader (Ensight, PerkinElmer). CTG reagent measures the amount of ATP, which is directly proportional to the number of cells, to determine the number of viable cells in culture.
The data were analysed as follows:
where x is the measured raw signal value of a well, (cr) is the median of the measured signal values for the Central Reference (DMSO) wells on a plate, (sr) is the median of the measured signal values for the Scale Reference (reference compound) wells on a plate.
where the experimental set-up assumes the Hill parameters in certain ranges: S0~Central Reference (CR) from normalization (=Bottom), Sinf~Scale Reference (SR) from normalization (=Top), nHill~1, AC50~within the measured concentration range.

Row | Compound | MLLT1% Degradation @ 0.1 μM (MLLT1) | IC50 (MV4-11 cells) [nM] | MLLT1% Degradation @ 0.01 μM (MLLT1) | MLLT1% Degradation @ 1 μM (MLLT1)
1 | CN1CCC[C@@H]1c1cc2cnc(NC(=O)CCCCCC3CCN(c4cccc5c4C(=O)N(C4CCC(=O)NC4=O)C5=O)CC3)cc2[nH]1 (stereo partly drawn) [Example 43, 6-(1-(2-(2,6-dioxopiperidin-3-yl)-1,3-dioxoisoindolin-4-yl)piperidin-4-yl)-N-(2-((R)-1-methylpyrrolidin-2-yl)-1H-pyrrolo[3,2-c]pyridin-6-yl)hexanamide] | A (Category A: A ≥ 75% degradation) | ≤ 100 |  | B (Category B: 50% ≤ B < 75% degradation)
2 | CN1CCC[C@@H]1c1cc2cnc(NC(=O)c3cccc(CCCNc4cccc5c4C(=O)N(C4CCC(=O)NC4=O)C5=O)c3)cc2[nH]1 (stereo partly drawn) [Example 45, 3-(3-((2-(2,6-dioxopiperidin-3-yl)-1,3-dioxoisoindolin-4-yl)amino)propyl)-N-(2-((R)-1-methylpyrrolidin-2-yl)-1H-pyrrolo[3,2-c]pyridin-6-yl)benzamide] | A (Category A: A ≥ 75% degradation) | ≤ 100 | A (Category A: A ≥ 75% degradation) | A (Category A: A ≥ 75% degradation)
3 | CN1CCC[C@@H]1c1cc2cnc(NC(=O)c3cccc(-c4cnn(CCCC5CCN(c6cccc7c6C(=O)N(C6CCC(=O)NC6=O)C7=O)CC5)c4)c3)cc2[nH]1 (stereo partly drawn) [Example 47, 3-(1-(3-(1-(2-(2,6-dioxopiperidin-3-yl)-1,3-dioxoisoindolin-4-yl)piperidin-4-yl)propyl)-1H-pyrazol-4-yl)-N-(2-((R)-1-methylpyrrolidin-2-yl)-1H-pyrrolo[3,2-c]pyridin-6-yl)benzamide] | B (Category B: 50% ≤ B < 75% degradation) | ≤ 100 | C (Category C: 25% ≤ C < 50% degradation) | A (Category A: A ≥ 75% degradation)
4 | CN1CCC[C@@H]1c1cc2cnc(NC(=O)c3ccc(OCC#Cc4cccc5c4CN(C4CCC(=O)NC4=O)C5=O)cc3)cc2[nH]1 (stereo partly drawn) [Example 51, 4-((3-(2-(2,6-dioxopiperidin-3-yl)-1-oxoisoindolin-4-yl)prop-2-yn-1-yl)oxy)-N-(2-((R)-1-methylpyrrolidin-2-yl)-1H-pyrrolo[3,2-c]pyridin-6-yl)benzamide] | A (Category A: A ≥ 75% degradation) | ≤ 100 | A (Category A: A ≥ 75% degradation) | A (Category A: A ≥ 75% degradation)
5 | CN1CCC[C@@H]1c1cc2cnc(NC(=O)c3ccc(CCC#Cc4cccc5c4CN(C4CCC(=O)NC4=O)C5=O)cc3)cc2[nH]1 (stereo partly drawn) [Example 52, 4-(4-(2-(2,6-dioxopiperidin-3-yl)-1-oxoisoindolin-4-yl)but-3-yn-1-yl)-N-(2-((R)-1-methylpyrrolidin-2-yl)-1H-pyrrolo[3,2-c]pyridin-6-yl)benzamide] | A (Category A: A ≥ 75% degradation) | ≤ 100 | A (Category A: A ≥ 75% degradation) | B (Category B: 50% ≤ B < 75% degradation)
6 | CN1CCC[C@@H]1c1cc2cnc(NC(=O)c3ccc(CCC#Cc4cccc5c4n(C)c(=O)n5C4CCC(=O)NC4=O)cc3)cc2[nH]1 (stereo partly drawn) [Example 53, 4-(4-(1-(2,6-dioxopiperidin-3-yl)-3-methyl-2-oxo-2,3-dihydro-1H-benzo[d]imidazol-4-yl)but-3-yn-1-yl)-N-(2-((R)-1-methylpyrrolidin-2-yl)-1H-pyrrolo[3,2-c]pyridin-6-yl)benzamide] | A (Category A: A ≥ 75% degradation) | ≤ 100 | A (Category A: A ≥ 75% degradation) | B (Category B: 50% ≤ B < 75% degradation)
7 | CN1CCC[C@@H]1c1cc2cnc(NC(=O)c3cccc(OCC#Cc4cccc5c4CN(C4CCC(=O)NC4=O)C5=O)c3)cc2[nH]1 (stereo partly drawn) [Example 58, 3-((3-(2-(2,6-dioxopiperidin-3-yl)-1-oxoisoindolin-4-yl)prop-2-yn-1-yl)oxy)-N-(2-((R)-1-methylpyrrolidin-2-yl)-1H-pyrrolo[3,2-c]pyridin-6-yl)benzamide] | A (Category A: A ≥ 75% degradation) | ≤ 100 | B (Category B: 50% ≤ B < 75% degradation) | C (Category C: 25% ≤ C < 50% degradation)

Second part, led by results:

Row | MLLT1% Degradation @ 0.1 μM (MLLT1) | IC50 (MV4-11 cells) [nM] | MLLT1% Degradation @ 0.01 μM (MLLT1) | Compound | MLLT1% Degradation @ 1 μM (MLLT1)
8 | A (Category A: A ≥ 75% degradation) | ≤ 100 | A (Category A: A ≥ 75% degradation) | CN1CCC[C@@H]1c1cc2cnc(NC(=O)c3ccc(CCC#Cc4cccc5c4CN(C4CCC(=O)NC4=O)C5=O)cc3F)cc2[nH]1 (stereo partly drawn) [Example 54, 4-(4-(2-(2,6-dioxopiperidin-3-yl)-1-oxoisoindolin-4-yl)but-3-yn-1-yl)-2-fluoro-N-(2-((R)-1-methylpyrrolidin-2-yl)-1H-pyrrolo[3,2-c]pyridin-6-yl)benzamide] | B (Category B: 50% ≤ B < 75% degradation)
9 | A (Category A: A ≥ 75% degradation) | ≤ 100 | A (Category A: A ≥ 75% degradation) | CN1CCC[C@@H]1c1cc2cnc(NC(=O)c3ccc(OCCCC#Cc4cccc5c4CN(C4CCC(=O)NC4=O)C5=O)cc3)cc2[nH]1 (stereo partly drawn) [Example 56, 4-((5-(2-(2,6-dioxopiperidin-3-yl)-1-oxoisoindolin-4-yl)pent-4-yn-1-yl)oxy)-N-(2-((R)-1-methylpyrrolidin-2-yl)-1H-pyrrolo[3,2-c]pyridin-6-yl)benzamide] | A (Category A: A ≥ 75% degradation)
10 | A (Category A: A ≥ 75% degradation) | ≤ 100 | A (Category A: A ≥ 75% degradation) | CN1CCC[C@@H]1c1cc2cnc(NC(=O)c3ccc(OCC#Cc4cccc5c4CN(C4CCC(=O)NC4=O)C5=O)cc3F)cc2[nH]1 (stereo partly drawn) [Example 57, 4-((3-(2-(2,6-dioxopiperidin-3-yl)-1-oxoisoindolin-4-yl)prop-2-yn-1-yl)oxy)-2-fluoro-N-(2-((R)-1-methylpyrrolidin-2-yl)-1H-pyrrolo[3,2-c]pyridin-6-yl)benzamide] | A (Category A: A ≥ 75% degradation)
